Our source for the % of control, % binding and % of inhibition values is ChEMBL document CHEMBL5465560, “Selectivity Literature for EUbOPEN Chemogenomic Library” (2024).

For experiment [1], the target named is T1, Non-receptor tyrosine-protein kinase TNK1 (Homo sapiens) (UniProt Q13470).
T1 sequence (whole entry): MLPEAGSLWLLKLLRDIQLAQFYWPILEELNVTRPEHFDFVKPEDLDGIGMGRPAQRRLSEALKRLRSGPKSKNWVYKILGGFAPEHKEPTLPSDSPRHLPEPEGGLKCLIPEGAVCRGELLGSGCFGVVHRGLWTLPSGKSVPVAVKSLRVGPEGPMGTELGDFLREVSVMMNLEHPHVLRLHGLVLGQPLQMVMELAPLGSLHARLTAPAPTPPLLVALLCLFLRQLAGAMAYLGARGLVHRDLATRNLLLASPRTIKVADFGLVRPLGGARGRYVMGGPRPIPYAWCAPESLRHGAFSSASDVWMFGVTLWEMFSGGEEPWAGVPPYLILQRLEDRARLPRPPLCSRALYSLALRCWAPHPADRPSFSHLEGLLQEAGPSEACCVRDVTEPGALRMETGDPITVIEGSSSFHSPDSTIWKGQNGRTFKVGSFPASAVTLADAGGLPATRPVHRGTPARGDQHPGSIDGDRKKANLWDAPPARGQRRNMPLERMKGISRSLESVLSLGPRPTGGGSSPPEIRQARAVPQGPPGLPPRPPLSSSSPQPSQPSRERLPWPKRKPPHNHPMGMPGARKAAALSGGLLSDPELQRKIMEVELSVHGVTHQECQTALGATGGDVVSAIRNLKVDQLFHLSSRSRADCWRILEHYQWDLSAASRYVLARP
Briefly: Selectivity interaction (KinomeScan (DiscoverX)) EUB0000666a TNK1. Conditions: at 10 µM.

Experiment [2] addresses Phosphatidylinositol 3-kinase catalytic subunit type 3 (Homo sapiens, UniProt Q8NEB9). Description: Selectivity interaction (KinomeScan (DiscoverX)) EUB0000229b PIK3C3. Conditions: at 10 µM.
The target in experiment [3] is T2, Interleukin-1 receptor-associated kinase 4 (Homo sapiens) (UniProt Q9NWZ3).
T2 sequence (whole entry): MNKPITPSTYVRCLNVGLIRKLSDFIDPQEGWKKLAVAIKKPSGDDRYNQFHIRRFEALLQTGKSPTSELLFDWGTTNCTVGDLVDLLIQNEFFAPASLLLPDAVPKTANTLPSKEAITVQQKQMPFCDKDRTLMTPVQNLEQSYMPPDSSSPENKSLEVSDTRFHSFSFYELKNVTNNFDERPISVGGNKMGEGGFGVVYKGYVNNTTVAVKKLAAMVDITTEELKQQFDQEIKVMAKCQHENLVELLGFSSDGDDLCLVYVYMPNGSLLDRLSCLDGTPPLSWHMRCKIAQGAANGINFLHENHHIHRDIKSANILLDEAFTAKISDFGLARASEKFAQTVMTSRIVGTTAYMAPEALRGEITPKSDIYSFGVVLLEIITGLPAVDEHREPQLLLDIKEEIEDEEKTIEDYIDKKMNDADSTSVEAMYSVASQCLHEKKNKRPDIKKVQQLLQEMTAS
Briefly: Selectivity interaction (KinomeScan (DiscoverX)) EUB0001619a IRAK4. Conditions: at 1 µM.

The target of experiment [4] is Ribosomal protein S6 kinase alpha-2 (Homo sapiens) (UniProt Q15349). Briefly: Selectivity interaction (KinomeScan (DiscoverX)) EUB0001619a RPS6KA2. Conditions: at 1 µM.
Experiment [5] deals with T3, Tyrosine-protein kinase ZAP-70 (Homo sapiens) (UniProt P43403).
T3 sequence (whole entry): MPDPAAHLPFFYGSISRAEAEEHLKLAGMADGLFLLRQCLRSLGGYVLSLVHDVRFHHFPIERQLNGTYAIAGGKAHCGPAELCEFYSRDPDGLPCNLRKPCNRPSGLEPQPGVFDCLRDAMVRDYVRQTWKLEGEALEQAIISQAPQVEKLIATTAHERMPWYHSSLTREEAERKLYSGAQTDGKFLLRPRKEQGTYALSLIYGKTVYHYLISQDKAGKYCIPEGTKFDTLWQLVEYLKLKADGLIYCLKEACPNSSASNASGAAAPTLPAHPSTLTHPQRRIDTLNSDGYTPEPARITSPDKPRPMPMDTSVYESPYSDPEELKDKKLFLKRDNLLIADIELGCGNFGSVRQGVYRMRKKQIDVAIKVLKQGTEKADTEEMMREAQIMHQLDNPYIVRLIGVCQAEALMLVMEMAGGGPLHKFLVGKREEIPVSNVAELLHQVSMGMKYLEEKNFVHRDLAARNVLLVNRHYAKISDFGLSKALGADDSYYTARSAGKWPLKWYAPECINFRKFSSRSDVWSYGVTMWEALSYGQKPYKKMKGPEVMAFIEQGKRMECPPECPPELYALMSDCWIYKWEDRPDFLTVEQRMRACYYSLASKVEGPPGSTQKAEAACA
Description: Selectivity interaction (Kinase panel (literature)) EUB0001199aCl ZAP70. Conditions: at 1 µM.

Experiment [6] deals with Protein-tyrosine kinase 2-beta (Homo sapiens) (UniProt Q14289). Description: Selectivity interaction (ActivX KiNativ screen (kinase selectivity in THP-1 cell lysates)) EUB0000639a PTK2B. Format: subcellular. Conditions: lysate, at 0.2 µM.
Experiment [7] addresses T4, Activin receptor type-1 (Homo sapiens) (UniProt Q04771).
T4 sequence (whole entry): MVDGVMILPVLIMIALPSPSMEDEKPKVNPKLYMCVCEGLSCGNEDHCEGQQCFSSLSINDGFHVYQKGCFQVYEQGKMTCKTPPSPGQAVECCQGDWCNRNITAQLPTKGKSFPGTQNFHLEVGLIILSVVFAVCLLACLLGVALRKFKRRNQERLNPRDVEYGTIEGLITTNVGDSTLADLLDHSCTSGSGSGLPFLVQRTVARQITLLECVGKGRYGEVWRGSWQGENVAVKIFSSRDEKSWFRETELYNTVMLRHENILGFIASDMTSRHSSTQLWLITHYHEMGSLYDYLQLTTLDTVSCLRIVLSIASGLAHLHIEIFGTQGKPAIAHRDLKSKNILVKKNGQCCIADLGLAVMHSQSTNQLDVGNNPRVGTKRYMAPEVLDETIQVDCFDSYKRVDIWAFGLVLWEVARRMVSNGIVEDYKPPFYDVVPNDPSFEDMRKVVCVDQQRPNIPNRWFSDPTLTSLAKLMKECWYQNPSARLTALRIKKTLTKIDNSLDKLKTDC
Description: Selectivity interaction (Kinase panel (Invitrogen)) EUB0000639a ACVR1. Conditions: at 200 nM.

Experiment [8] can be described thus: Selectivity interaction (KinomeScan (DiscoverX)) EUB0000695a PKNB. Conditions: at 100 nM.
For experiment [9], the target named is Transient receptor potential cation channel subfamily M member 6 (Homo sapiens) (UniProt Q9BX84). Description: Selectivity interaction (KinomeScan (DiscoverX)) EUB0000045b TRPM6.
Chain of Transient receptor potential cation channel subfamily M member 6 (Homo sapiens) (Q9BX84 whole entry): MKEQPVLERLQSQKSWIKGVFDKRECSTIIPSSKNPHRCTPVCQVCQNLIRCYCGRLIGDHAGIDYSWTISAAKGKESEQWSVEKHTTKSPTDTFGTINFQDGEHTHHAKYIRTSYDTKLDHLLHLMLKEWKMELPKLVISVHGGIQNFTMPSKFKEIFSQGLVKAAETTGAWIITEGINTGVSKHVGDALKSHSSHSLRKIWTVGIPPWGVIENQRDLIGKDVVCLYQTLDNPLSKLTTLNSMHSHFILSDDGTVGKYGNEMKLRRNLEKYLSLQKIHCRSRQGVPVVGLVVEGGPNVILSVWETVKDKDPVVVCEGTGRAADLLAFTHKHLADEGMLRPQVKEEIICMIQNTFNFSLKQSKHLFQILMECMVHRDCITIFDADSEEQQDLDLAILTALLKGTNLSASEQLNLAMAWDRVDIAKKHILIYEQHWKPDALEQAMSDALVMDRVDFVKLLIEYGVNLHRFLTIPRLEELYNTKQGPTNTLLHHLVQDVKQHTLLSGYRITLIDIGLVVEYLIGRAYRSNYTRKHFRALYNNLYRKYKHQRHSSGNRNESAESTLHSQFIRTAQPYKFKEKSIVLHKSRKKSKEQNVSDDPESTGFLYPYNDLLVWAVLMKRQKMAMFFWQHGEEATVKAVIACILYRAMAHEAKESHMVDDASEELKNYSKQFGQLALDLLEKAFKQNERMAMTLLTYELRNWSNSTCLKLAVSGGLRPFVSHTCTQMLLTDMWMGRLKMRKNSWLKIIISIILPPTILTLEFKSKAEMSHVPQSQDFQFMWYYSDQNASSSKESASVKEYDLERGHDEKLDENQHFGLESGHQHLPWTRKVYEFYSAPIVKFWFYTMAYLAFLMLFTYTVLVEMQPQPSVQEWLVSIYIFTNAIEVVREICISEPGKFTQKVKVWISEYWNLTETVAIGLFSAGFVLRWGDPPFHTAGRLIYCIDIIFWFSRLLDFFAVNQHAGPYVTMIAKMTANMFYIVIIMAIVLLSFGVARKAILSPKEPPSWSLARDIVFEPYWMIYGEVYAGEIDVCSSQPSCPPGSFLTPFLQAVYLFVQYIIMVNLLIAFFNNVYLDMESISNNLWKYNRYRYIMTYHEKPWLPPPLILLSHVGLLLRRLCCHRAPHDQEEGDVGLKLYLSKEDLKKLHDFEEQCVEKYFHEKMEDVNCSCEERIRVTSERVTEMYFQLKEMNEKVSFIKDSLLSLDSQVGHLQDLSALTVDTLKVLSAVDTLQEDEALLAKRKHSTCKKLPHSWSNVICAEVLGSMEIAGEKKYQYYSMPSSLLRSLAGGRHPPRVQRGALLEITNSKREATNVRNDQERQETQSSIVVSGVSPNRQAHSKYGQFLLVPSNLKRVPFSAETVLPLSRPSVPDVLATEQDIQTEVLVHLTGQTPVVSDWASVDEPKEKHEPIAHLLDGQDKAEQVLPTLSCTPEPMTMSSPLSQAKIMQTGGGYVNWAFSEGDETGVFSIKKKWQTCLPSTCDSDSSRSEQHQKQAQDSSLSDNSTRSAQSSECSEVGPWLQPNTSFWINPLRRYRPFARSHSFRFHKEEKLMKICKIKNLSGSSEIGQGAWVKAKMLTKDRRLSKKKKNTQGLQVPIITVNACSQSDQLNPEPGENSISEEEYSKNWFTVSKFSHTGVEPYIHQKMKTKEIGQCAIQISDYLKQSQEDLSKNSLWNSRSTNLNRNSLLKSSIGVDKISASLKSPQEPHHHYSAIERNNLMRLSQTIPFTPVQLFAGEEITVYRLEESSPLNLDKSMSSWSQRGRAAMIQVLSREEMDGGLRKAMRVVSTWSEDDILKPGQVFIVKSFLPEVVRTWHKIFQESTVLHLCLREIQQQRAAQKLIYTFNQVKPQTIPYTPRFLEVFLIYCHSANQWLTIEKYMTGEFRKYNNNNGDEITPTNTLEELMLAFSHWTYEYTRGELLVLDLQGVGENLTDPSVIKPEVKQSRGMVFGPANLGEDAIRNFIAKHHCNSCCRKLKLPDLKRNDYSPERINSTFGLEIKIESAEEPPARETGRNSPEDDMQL
The target in experiment [10] is Citron Rho-interacting kinase (Homo sapiens) (UniProt O14578). Briefly: Selectivity interaction (KinomeScan (DiscoverX)) EUB0000045b CIT.
Chain of Citron Rho-interacting kinase (Homo sapiens) (O14578 whole entry): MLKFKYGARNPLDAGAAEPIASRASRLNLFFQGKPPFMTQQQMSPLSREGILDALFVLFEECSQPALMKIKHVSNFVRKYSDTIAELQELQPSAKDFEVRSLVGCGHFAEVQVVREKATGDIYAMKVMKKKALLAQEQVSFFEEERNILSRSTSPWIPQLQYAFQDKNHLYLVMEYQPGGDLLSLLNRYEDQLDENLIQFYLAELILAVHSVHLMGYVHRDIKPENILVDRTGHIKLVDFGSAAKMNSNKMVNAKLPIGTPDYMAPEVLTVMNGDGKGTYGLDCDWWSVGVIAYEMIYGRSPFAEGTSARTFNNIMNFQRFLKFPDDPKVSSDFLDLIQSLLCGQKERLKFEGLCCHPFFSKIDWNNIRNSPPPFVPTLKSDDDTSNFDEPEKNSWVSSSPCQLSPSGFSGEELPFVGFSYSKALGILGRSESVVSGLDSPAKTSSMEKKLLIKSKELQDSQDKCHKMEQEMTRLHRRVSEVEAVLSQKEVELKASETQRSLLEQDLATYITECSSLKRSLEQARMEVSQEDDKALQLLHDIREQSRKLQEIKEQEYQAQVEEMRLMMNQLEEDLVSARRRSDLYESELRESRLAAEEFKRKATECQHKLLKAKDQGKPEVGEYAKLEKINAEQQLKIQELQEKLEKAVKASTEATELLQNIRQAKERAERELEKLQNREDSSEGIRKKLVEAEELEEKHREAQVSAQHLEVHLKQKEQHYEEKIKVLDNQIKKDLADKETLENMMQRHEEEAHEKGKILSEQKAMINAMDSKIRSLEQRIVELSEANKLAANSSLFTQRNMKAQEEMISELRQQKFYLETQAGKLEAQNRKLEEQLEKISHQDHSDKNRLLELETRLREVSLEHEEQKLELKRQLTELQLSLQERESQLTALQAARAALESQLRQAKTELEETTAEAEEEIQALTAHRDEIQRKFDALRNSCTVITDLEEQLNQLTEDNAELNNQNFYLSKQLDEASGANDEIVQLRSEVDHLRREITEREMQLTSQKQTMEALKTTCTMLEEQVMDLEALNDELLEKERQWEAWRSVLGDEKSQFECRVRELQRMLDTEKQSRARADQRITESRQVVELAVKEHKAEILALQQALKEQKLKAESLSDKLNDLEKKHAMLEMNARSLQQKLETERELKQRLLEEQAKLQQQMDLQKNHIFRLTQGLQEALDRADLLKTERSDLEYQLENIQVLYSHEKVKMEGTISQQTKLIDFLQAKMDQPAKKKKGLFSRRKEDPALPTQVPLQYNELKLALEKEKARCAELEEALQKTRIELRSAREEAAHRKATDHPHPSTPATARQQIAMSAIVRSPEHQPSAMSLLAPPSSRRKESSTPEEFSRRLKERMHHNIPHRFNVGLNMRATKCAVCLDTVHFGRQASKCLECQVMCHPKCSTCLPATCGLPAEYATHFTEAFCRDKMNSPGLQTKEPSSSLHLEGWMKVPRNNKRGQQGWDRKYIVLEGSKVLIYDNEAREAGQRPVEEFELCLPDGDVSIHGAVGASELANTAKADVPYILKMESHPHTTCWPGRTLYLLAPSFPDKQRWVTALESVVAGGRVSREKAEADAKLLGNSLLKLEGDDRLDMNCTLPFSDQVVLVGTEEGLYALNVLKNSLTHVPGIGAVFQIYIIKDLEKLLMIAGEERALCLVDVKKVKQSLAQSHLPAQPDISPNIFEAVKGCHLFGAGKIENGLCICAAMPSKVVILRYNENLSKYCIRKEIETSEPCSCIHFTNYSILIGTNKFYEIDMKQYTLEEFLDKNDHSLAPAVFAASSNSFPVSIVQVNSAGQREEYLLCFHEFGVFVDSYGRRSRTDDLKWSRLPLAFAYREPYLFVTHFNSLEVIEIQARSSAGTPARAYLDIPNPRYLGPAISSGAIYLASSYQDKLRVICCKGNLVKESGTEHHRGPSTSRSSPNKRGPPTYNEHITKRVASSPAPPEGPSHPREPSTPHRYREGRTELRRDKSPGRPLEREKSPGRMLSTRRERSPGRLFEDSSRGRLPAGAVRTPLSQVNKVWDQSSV
The target in experiment [11] is Serine/threonine-protein kinase 25 (Homo sapiens) (UniProt O00506). Briefly: Selectivity interaction (KinomeScan (DiscoverX)) EUB0000618a STK25. Conditions: at 10 µM.
Chain of Serine/threonine-protein kinase 25 (Homo sapiens) (O00506 whole entry, looked up): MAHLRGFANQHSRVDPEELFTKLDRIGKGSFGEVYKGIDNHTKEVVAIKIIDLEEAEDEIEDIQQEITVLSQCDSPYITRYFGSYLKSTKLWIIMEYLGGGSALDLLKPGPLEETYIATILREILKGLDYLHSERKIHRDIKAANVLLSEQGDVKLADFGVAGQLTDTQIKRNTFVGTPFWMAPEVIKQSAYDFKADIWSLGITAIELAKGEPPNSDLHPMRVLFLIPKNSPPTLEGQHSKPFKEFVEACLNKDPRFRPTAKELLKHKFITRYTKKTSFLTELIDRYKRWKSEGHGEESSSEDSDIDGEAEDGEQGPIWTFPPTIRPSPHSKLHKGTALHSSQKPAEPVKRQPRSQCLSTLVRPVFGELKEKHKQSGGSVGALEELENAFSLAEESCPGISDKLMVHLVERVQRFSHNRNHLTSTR
Experiment [12] concerns the target Hepatocyte growth factor-like protein (Homo sapiens) (UniProt P26927). Briefly: Selectivity interaction (KinomeScan (DiscoverX)) EUB0000595a MST1. Conditions: at 10 µM.

On to `O=C(NOC[C@H](O)CO)c1ccc(F)c(F)c1Nc1ccc(I)cc1F`, for which, in [1], the % of control turned out to be 68%. Compound `COc1cc(N(C)c2ccnc3ccc(C(F)(F)F)cc23)cc(OC)c1OC` returned a % binding in [2] of 93%. As for `N#Cc1cccc(-c2c[nH]c3ncnc(N4CCOCC4)c23)c1`, the % of control in experiment [3] amounted to 69%; in experiment [4], 100%. With `CN1Cc2nccc(-c3cn(C)nc3-c3ccc(F)cc3)c2C1=O`, in [5], the % of inhibition was determined as 6%.

For `CC[C@@H]1[C@H](F)C(=O)N[C@@H]1COc1nccc2cc(C(N)=O)c(OC)cc12` [ZIMLOVISERTIB], the % of inhibition in [6] was -18.6%; in experiment [7] it was 25.7%. With `Cc1cc(F)c(C(=O)Nc2cccc(-c3nncn3C(C)C)n2)cc1-n1cnc(C2CC2)c1`, in experiment [8], the % of control is 100%.

As for `C=CC(=O)Nc1cc(-n2c(=O)ccc3cnc4ccc(-c5ccc(NS(C)(=O)=O)cc5)cc4c32)ccc1C`, the % of control in experiment [9] (at 1 µM) stood at 100%; in [9] (at 10 µM), 100%; in [10] (at 1 µM), 83%; in experiment [10] (at 10 µM), 53%. `O[C@H]1CC[C@H](Nc2ncc3nc(Nc4c(F)cc(F)cc4F)n([C@H]4CCOC4)c3n2)CC1` had a % of control in experiment [11] of 64%. Take `COCC(=O)NC/C=C/c1ccc2ncnc(Nc3ccc(Oc4ccc(C)nc4)c(C)c3)c2c1` [CP-724714]: the % of control in experiment [12] turned out to be 87%.
